Reference: patent US20220016205A1, “METHODS OF OVERCOMING RESISTANCE TO IMMUNE CHECKPOINT INHIBITORS” (Board of Regents, The University of Texas System, priority 2018, published 2022)

Assays:
[1] = system: RAW 264.7 cells; assay: qPCR in RAW 264.7 cells co-cultured with 344SQR cells (transwell) with follistatin or K02288; format: cell-based, murine; conditions: 344SQR co-culture plus K02288 compared with 344SQR only (FIG. 3E)
Text: (§1) Quantitative polymerase chain reaction (qPCR). Total RNA was isolated from cells and tumors with Triazol (Life Technologies) according to the manufacturer's protocol. For studies of BMP7, p38α, IL-1α, IL-1β, TNF-α, RANTES, IL-2, and IFN-γ expression, mRNA was retrotranscribed with the iScript™ gDNA Clear cDNA Synthesis Kit (BioRad) and analyzed by qPCR using SYBR Green (Life Technologies) with specific primers according to the manufacturer's protocol. The comparative Ct method was used to calculate the relative abundance of mRNAs compared with ACTB (beta-actin) expression for cancer cells or CD45 expression for immune cells.
Co-culture experiments and treatments. Viable cells were counted with a hemocytometer (0.4% Trypan blue solution) and diluted to 40,000 cells per well in 24-wells plates. Cells from 344SQP, 344SQR, 344SQ ctrl, or 344SQ-shBMP7 tumors were seeded at the top inserts (24-mm Transwell with 0.4-μm pore polycarbonate membrane insert, Sigma-Aldrich), and RAW 264.7 or CD4^+ T cells were seeded at the bottom of the transwell system. […] RNA was then isolated from RAW 264.7 or CD4^+ T cells and analyzed for p38α, IL-1α, IL-1β, TNF-α, RANTES, IL-2 and IFN-γ expression with qPCR. […]

[2] = system: peritoneal macrophages; assay: qPCR in peritoneal macrophages co-cultured with 344SQR cells (transwell) with follistatin or K02288; format: cell-based, mouse; conditions: 344SQR co-culture plus K02288 compared with 344SQR only (FIG. 3F)
[3] = system: 344SQR shBMP7 tumors; assay: Tumor growth, survival and TIL flow cytometry of mice with 344SQR shBMP7 (BMP7-knockdown) tumors treated with checkpoint antibodies; format: in vivo, 129Sv/Ev mice; conditions: antibody 10 mg/kg twice a week for 2 weeks in combination with BMP7 knockdown, compared with control (FIGS. 5A, 5I, 5J)
Protocol: In vivo studies. All mouse studies were approved by the Institutional Animal Care and Use Committee (IACUC) of The University of Texas MD Anderson Cancer Center before their initiation; animal care was provided according to IACUC standards, and all mice had been bred and were maintained in our own specific pathogen-free mouse colony. For RRBS, RPPA and TILs studies, primary tumors were established by subcutaneous injection of 344SQP or 344SQR cells (0.5×10^6 in 100 μL of sterile phosphate buffered saline [PBS]) into the leg of syngeneic 129Sv/Ev mice (female, 12-16 weeks old). Mice were then given intraperitoneal injections of anti-PD1 or control IgG antibodies (10 mg/kg) (Bio X cell), starting on day 4 after tumor cell inoculation and continuing twice per week for a total of 4 doses. At 24 hours after the last anti-PD1 treatment, tumor tissues were collected for DNA (2 mice/group) and protein isolation (2 or 3 mice/group). For TILs isolation, tumor tissues (3 mice/group) were collected a week after the last treatment with anti-PD1. […] Tumors were measured with calipers three times per week and recorded as tumor volume (in mm^3)=width^2×length/2. […] Mouse survival rates were analyzed by using the Kaplan-Meier method and compared with log-rank tests.
Tissue processing and flow cytometry. […] All samples were analyzed with an LSRII flow cytometer and FlowJo software (version 10.0.7). […]

[4] = system: T lymphocytes; conditions: Matsuda et al., 1998; cited from earlier work
[5] = system: T-cell; conditions: Crawley et al., 1997; cited from earlier work
[6] = system: RAW 264.7 cells; assay: p38a silencing with siRNAs in RAW 264.7 cells, qPCR / expression analysis; format: cell-based, murine; conditions: BMP7 treatment of cells treated with siRNAs targeting p38a (FIG. 3K)
Text: as §1
Transfection siRNA. siRNA targeting p38a (Life Technologies, Cat #4390771) and its respective negative-control negative control (Life Technologies, Cat #4390843) were reverse-transfected into RAW 264.7 macrophages with Lipofectamine 2000 (Life Technologies) to a final concentration of […].

[7] = system: peritoneal macrophages; assay: qPCR of p38α, IL-1α, IL-1β, TNF-α, RANTES in peritoneal macrophages treated with BMP7 or BMP7 plus follistatin; format: cell-based, mouse; conditions: BMP7 compared to untreated control (FIG. 3G)
Text: as §1
(§2) Co-culture experiments and treatments. Viable cells were counted with a hemocytometer (0.4% Trypan blue solution) and diluted to 40,000 cells per well in 24-wells plates. Cells from 344SQP, 344SQR, 344SQ ctrl, or 344SQ-shBMP7 tumors were seeded at the top inserts (24-mm Transwell with 0.4-μm pore polycarbonate membrane insert, Sigma-Aldrich), and RAW 264.7 or CD4^+ T cells were seeded at the bottom of the transwell system. […] RNA was then isolated from RAW 264.7 or CD4^+ T cells and analyzed for p38α, IL-1α, IL-1β, TNF-α, RANTES, IL-2 and IFN-γ expression with qPCR.

[8] = system: CD4^+ T cells; assay: qPCR of p38α, IFN-γ, IL-2 in activated CD4+ T cells treated with BMP7 or BMP7 plus follistatin; format: cell-based, mouse
Text: as §1
Co-culture experiments and treatments. Viable cells were counted with a hemocytometer (0.4% Trypan blue solution) and diluted to 40,000 cells per well in 24-wells plates. Cells from 344SQP, 344SQR, 344SQ ctrl, or 344SQ-shBMP7 tumors were seeded at the top inserts (24-mm Transwell with 0.4-μm pore polycarbonate membrane insert, Sigma-Aldrich), and RAW 264.7 or CD4^+ T cells were seeded at the bottom of the transwell system. CD4^+ T cells were isolated from splenocytes by using Dynabeads Untouched Mouse CD4 Cells Kit (Thermo Fisher Scientific—Life Technologies, Catalog #11416D) and activated with LEAF purified anti-mouse CD3c antibody (5 μg/mL) and LEAF purified anti-mouse CD28 antibody (1 μg/mL) (Biolegend). […] RNA was then isolated from RAW 264.7 or CD4^+ T cells and analyzed for p38α, IL-1α, IL-1β, TNF-α, RANTES, IL-2 and IFN-γ expression with qPCR.
Next, CD4^+ T cells were co-cultured with 344SQP or 344SQR cells, and 344SQR ctrl or 344SQR shBMP7 cells, and the expression of p38α, IFN-γ, and IL-2 analyzed. […] To confirm that these findings depended on BMP7 and not on some other secreted molecule, CD4^+ T cells were treated with BMP7 with or without follistatin and p38α, IFN-γ, and IL-2 expression evaluated. […]

[9] = system: RAW 264.7 cells; assay: qPCR of p38α, IL-1α, IL-1β, TNF-α, RANTES in RAW 264.7 cells treated with BMP7 or BMP7 plus follistatin; format: cell-based, murine; conditions: BMP7 compared to untreated control, 24 or 48 hours (FIG. 3G)
Text: as §1, §2

## COc1cc(-c2cc(-c3cccc(O)c3)cnc2N)cc(OC)c1OC [K02288, reference compound]
[1]
  expression of p38a and p38α-regulated cytokines and chemokines: lower expression
[2]
  expression of p38a and p38α-regulated cytokines and chemokines: lower expression

## anti-PDL1: anti-PDL1 (Durvalumab, Pharmacy MD Anderson)
[3]
  survival: increased survival

## C[S+]([O-])c1ccc(-c2nc(-c3ccncc3)c(-c3ccc(F)cc3)[nH]2)cc1 (stereo not shown) [SB203580]
[4]
  transcriptional activation of the IL-2 promoter: suppressed the transcriptional activation
[5]
  T-cell proliferation in response to IL-2: suppressed T-cell proliferation

B1: BMP7: bone morphogenetic protein (BMP)-7, secreted protein of the TGF-β superfamily (R&D Systems, Catalog #5666-BP-010) (protein, UniProt P18075 293-431, looked up)
Bone morphogenetic protein 7: STGSKQRSQNRSKTPKNQEALRMANVAENSSSDQRQACKKHELYVSFRDLGWQDWIIAPEGYAAYYCEGECAFPLNSYMNATNHAIVQTLVHFINPETVPKPCCAPTQLNAISVLYFDDSSNVILKKYRNMVVRACGCH
[6]
  expression of TNF-α, IL1-β, and CD206: did not alter
[7]
  expression of p38a and p38α-regulated cytokines and chemokines: lower expression
[8]; effect of BMP7
  p38α expression: led to changes
[8]; effect of BMP7, via p38α
  IFN-γ and IL-2 expression: decreased
[9]
  expression of p38a and p38α-regulated cytokines and chemokines: lower expression
